Data: patent US20150157634A1, “METHODS OF TREATING AND PREVENTING ALLOANTIBODY DRIVEN CHRONIC GRAFT VERSUS HOST DISEASE” (PHARMACYCLICS, INC., priority 2013, published 2015)

Assays:
[1] = system: C57BL/6→B10.BR cGVHD model; experiment: Masson trichrome staining of pulmonary collagen deposition / fibrosis in cGVHD model; format: in vivo, mouse
Experimental: (§1) Therapeutic allo-HSCT model: The C57BL/6→B10.BR model has been described previously (Srinivasan, M. et al. Blood 119, 1570-1580 (2012)). In brief, B10.BR recipients conditioned with 120 mg/kg/day I.P. cyclophosphamide (Cy) on days −3 and −2 and 8.3 Gy TBI (using a ^137Cesium irradiator) on day −1 were engrafted with 1×10^7 Thy1.2 depleted C57BL/6 derived bone marrow (BM) cells with (or without) 1×10^6 allogeneic splenocytes.
(§2) Therapeutic administration of ibrutinib via drinking water was conducted as previously described (Dubovsky 2013). Mice received a dose equivalent to 15 mg/Kg/day in 0.4% methylcellulose by intraperitoneal injection starting day 28 post-transplant for the C57BL/6→B10.BR model. Cyclosporine A was administered I.P. in 0.2% CMC at 10 mg/kg/day starting at day 25 for 2-weeks followed by 3× weekly (Blazar, B. R. et al. Blood 92, 3949-3959 (1998)).
Masson Trichrome staining: 6 μm cryosections were fixed for 5 minutes in acetone and stained with hematoxylin and eosin to determine pathology and with the Masson's trichrome staining kit (Sigma) for detection of collagen deposition. Histopathology scores were assigned as described (Blazar, B. R. et al. Blood 92, 3949-3959 (1998)). Collagen deposition was quantified on trichrome stained sections as a ratio of area of blue staining to area of total staining using the Adobe Photoshop CS3 analysis tool.

[2] = system: C57BL/6→B10.BR cGVHD model; experiment: Pulmonary function tests (PFTs) at day 60 in therapeutic allo-HSCT cGVHD/bronchiolitis obliterans model; format: in vivo, mouse
Experimental: To determine whether ibrutinib could reverse established cGVHD, a murine model of alloantibody driven multi-organ system cGVHD including bronchiolar obliterans (BO) (MHC disparate, C57BL/6→B10.BR) was utilized.
as §1, §2
Pulmonary function tests: Pulmonary function tests (PFTs) were performed on anesthetized mice using whole-body plehysmography with the Flexivent system (SCIREQ).

[3] = system: C57BL/6→B10.BR cGVHD model; experiment: Germinal center detection in spleen (PNA staining, flow cytometry of GC B-cells); format: in vivo, mouse
Description: (§3) FIG. 4 exemplifies germinal center reactions and pulmonary immunoglobulin deposition are therapeutically abated with administration of ibrutinib. A) Germinal centers were imaged by staining 6 um spleen sections with PNA conjugated to rhodamine. B) Splenocytes were purified from transplanted mice on day 60 and frequency of germinal center B cells were quantified. C) 6 μm lung sections from day 60 transplanted mice were stained with anti-mouse Ig conjugated to FITC. D) quantified with Adobe Photoshop CS3.
as §1
Therapeutic administration of ibrutinib via drinking water was conducted as previously described (Dubovsky 2013). Mice received a dose equivalent to 15 mg/Kg/day in 0.4% methylcellulose by intraperitoneal injection starting day 28 post-transplant for the C57BL/6→B10.BR model. Cyclosporine A was administered I.P. in 0.2% CMC at 10 mg/kg/day starting at day 25 for 2-weeks followed by 3× weekly (Blazar, B. R. et al. Blood 92, 3949-3959 (1998)). […]

[4] = system: C57BL/6→B10.BR cGVHD model; experiment: Overall survival of cGVHD mice (Kaplan Meier); format: in vivo, mouse; conditions: ibrutinib cohort; FIG. 2
Experimental: FIG. 2 exemplifies survival of cGVHD mice in C57BL/6→B10.BR model. Kaplan Meier plot of overall survival for bone marrow (BM) non-cGVHD mice, BM+splenocyte (S) engrafted cGVHD irrelevant vehicle treated mice, or Ibrutinib treated BM+S engrafted mice.
as §1, §2

[5] = Weekly body weight of cGVHD mice; format: in vivo, mouse; conditions: BM, BM+S vehicle and BM+S ibrutinib groups; FIG. 3
Experimental: FIG. 3 exemplifies body weight of cGVHD mice in C57BL/6→B10.BR model. Bodyweight measurements for bone marrow (BM) non-cGVHD mice, BM+splenocyte (S) engrafted cGVHD irrelevant vehicle treated mice, or Ibrutinib treated BM+S engrafted mice.
as §1, §2

[6] = system: C57BL/6→B10.BR cGVHD model; experiment: Pulmonary immunoglobulin deposition (anti-mouse Ig FITC immunofluorescence of lung sections); format: in vivo; conditions: day 60 post-HSCT
Description: as §3, §1, §2

## C=CC(=O)N1CCC[C@@H](n2nc(-c3ccc(Oc4ccccc4)cc3)c3c(N)ncnc32)C1 [ibrutinib, (R)-1-(3-(4-amino-3-(4-phenoxyphenyl)-1H-pyrazolo[3,4-d]pyrimidin-1-yl)piperidin-1-yl)prop-2-en-1-one]
[1]; 4 mice from 3 experiments, representative images, FIG. 1D
  peribronchiolar collagen fibrosis, Masson Trichrome staining of inflated pulmonary tissues: less peribroncheolar collagen fibrosis
[1]; C57BL/6→B10.BR cGVHD model
  lung and liver fibrosis (summary statement): reversed lung and liver fibrosis
[1]; p<0.0001, FIG. 1E
  quantified trichrome staining (pulmonary fibrosis, ratio of blue area to total area): ameliorates pulmonary fibrosis caused by cGVHD
[2]; C57BL/6→B10.BR cGVHD model
  pulmonary function (summary statement): restored pulmonary function
[2]; ibrutinib 15 mg/Kg/day from day 28 post-transplant, PFT day 60, p=0.0019, FIG. 1B
  development of BO as measured by pulmonary elastance: curtailed the development of BO in vivo
[2]; ibrutinib 15 mg/Kg/day from day 28 post-transplant, PFT day 60, p=0.0071, FIG. 1C
  development of BO as measured by pulmonary compliance: curtailed the development of BO in vivo
[2]; ibrutinib 15 mg/Kg/day from day 28 post-transplant, PFT day 60, p=0.0090, FIG. 1A
  development of BO as measured by pulmonary resistance: curtailed the development of BO in vivo
[3]; compared to vehicle treated mice with active cGVHD, FIG. 4A
  GC reactions within the spleen (peanut agglutinin staining): reduced the overall size, cellularity, and number of GC reactions
[3]; day 60 post-HSCT, 8 mice per group, p=0.0222, FIG. 4B
  CD19+GL7+CD38lo germinal center B-cells within the spleen (flow cytometry): significantly inhibited the cGVHD-induced formation germinal center B-cells
[4]
  survival: 100%
[5]
  mouse bodyweight, weekly evaluation: little variation between groups
[6]; FIG. 4C
  pulmonary deposition of allo-Ig (immunofluorescent microscopy): limited pulmonary deposition of allo-Ig
[6]; p<0.001, FIG. 4D
  quantified immunofluorescent signal of pulmonary Ig deposition: significant and complete ablation of pulmonary Ig deposition
